According to PMC9282638, “A Suite of Activity-Based Probes To Dissect the KLK Activome in Drug-Resistant Prostate Cancer” (Journal of the American Chemical Society, 2021):

Columns and labels:
LNCaP-K14 cells = type: cell-based, human; settings: for cytotoxicity: 10 μM, 96 h time period; for effect on proliferation (cell confluency): Figure S27
Source text: Prior to the establishment of bone metastases circulating PCa cells must first enter the bone microenvironment by migrating across the sinusoidal wall.[54] We have previously shown that increased KLK14 activity drives PCa cell migration and colonization of mineralized bone matrices.[15] However, the specific contributions of the KLK activome (KLK2, KLK3, and KLK14) toward PCa cell migration are yet to be elucidated. […] We then assessed the migratory capacity of LNCaP-K14 cells using a transwell assay (see Figure S28 for standard curve).
proliferation of LNCaP-K14 cells. Cell confluency was monitored by real-time imaging using
an Incucyte S3 system (Essen Bioscience).
(1 picture or pasted object on this page, not shown here)

[1] = tested on: KLK activome (KLK2, KLK3, KLK14) in LNCaP-K14 cells; assay: Residual KLK activity in conditioned media of bABP-treated LNCaP-K14 cells, read out with fABP cocktail; type: cell-based, human; settings: 1 μM bABP co-incubated with 10 nM DHT and 200 nM Dox for 48 h
Source text: The data presented above provide evidence that KLK activity in PCa is regulated by the AR at a level beyond simple changes in expression and raise the possibility that KLK activities may be actionable targets for therapeutic intervention at different disease stages, in particular during PCa metastasis to bone. However, KLKs are predicted to form complex proteolytic networks and it is often not clear which protease(s) should be inhibited for maximum phenotypic response in a particular disease setting. […] To enable dissection of the PCa KLK activome directly in LNCaP cells, we further expanded the KLK probe toolbox by synthesizing KLK2_fABP (42) and KLK14_fABP (43) (Figure 6A and Figure S2), fluorescent ABP (fABP) analogues of KLK2_bABP and KLK14_bABP bearing dyes fluorescing at discrete wavelengths, which retain excellent potency and selectivity for KLK2 and KLK14, respectively (Figure S25). KLK2_fABP and KLK14_fABP were combined with KLK3-selective fABP 21 (KLK3_fABP) in an “fABP cocktail” to a final concentration of 1 μM each and incubated for 20 min with CM obtained from LNCaP-WT, LNCaP-mK14, or LNCaP-K14 cells following 48 h treatment with 10 nM DHT to enable simultaneous multicolor readout of KLK2, KLK3, and KLK14 activity. […] However, upon Dox-induced KLK14 expression in DHT-treated LNCaP-K14 cells a significant increase in the activity of all three KLKs was evident (see Figure 6B and Figure S26 for gel quantification). […] Residual KLK activity in CM was then assessed using the fABP cocktail (Figure 6B).
Figure 6 Dissecting the KLK activome in LNCaP cells. […] (B) KLK activity profiling by in-gel fluorescence of conditioned media obtained from LNCaP-WT, LNCaP-mK14, and LNCaP-K14 cells following treatment with DHT (10 nM), Dox (100 ng/mL), and the appropriate biotinylated ABP using fluorescent ABPs 20, 42 and 43. See Figure S26 for blot and gel quantification. […] Cultures were incubated for a further 24 h before the number of migrating cells was quantified.

| SMILES | cytotoxicity (LNCaP-K14 cells) | effect on proliferation (cell confluency) (LNCaP-K14 cells) | effect on activity of the other KLKs [1] |
| --- | --- | --- | --- |
| CCC(NC(=O)C(CCN)NC(=O)C(Cc1ccc2ccccc2c1)NC(=O)CCCCCNC(=O)CCCCC1SCC2NC(=O)NC21)C(=O)NC(c1ccc(NC(=N)N)cc1)P(=O)(Oc1ccccc1)Oc1ccccc1 (stereo not drawn) [compound 39, 2Nal-Dab-Abu-Arg] | no cytotoxicity | no significant effect | significant decrease |
| CCC[C@H](NC(=O)[C@H](CCC(N)=O)NC(=O)[C@H](CC(N)=O)NC(=O)CCCCCNC(=O)CCCC[C@@H]1SC[C@@H]2NC(=O)N[C@@H]21)C(=O)NC(c1ccc(C(N)=O)cc1)P(=O)(Oc1ccccc1)Oc1ccccc1 (stereo partly drawn) [compound 20] | no cytotoxicity | no significant effect | does not affect the activity of other KLKs |
| CC(C)(C)C(NC(=O)CCCCCNC(=O)CCCCC1SCC2NC(=O)NC21)C(=O)NC(CCN)C(=O)NC(Cc1ccc(O)cc1)C(=O)NC(c1ccc(NC(=N)N)cc1)P(=O)(Oc1ccccc1)Oc1ccccc1 (stereo not drawn) [compound 31, Tle-Dab-Tyr-Arg] | no cytotoxicity | no significant effect | does not affect the activity of other KLKs |
